Target: 5-hydroxytryptamine receptor 4 (Rattus norvegicus, UniProt Q62758)
Assay: Agonist activity against serotonin 5-HT4 receptor in rat tunica muscularis mucosae assay

5-hydroxytryptamine receptor 4, sequence (Q62758 whole entry): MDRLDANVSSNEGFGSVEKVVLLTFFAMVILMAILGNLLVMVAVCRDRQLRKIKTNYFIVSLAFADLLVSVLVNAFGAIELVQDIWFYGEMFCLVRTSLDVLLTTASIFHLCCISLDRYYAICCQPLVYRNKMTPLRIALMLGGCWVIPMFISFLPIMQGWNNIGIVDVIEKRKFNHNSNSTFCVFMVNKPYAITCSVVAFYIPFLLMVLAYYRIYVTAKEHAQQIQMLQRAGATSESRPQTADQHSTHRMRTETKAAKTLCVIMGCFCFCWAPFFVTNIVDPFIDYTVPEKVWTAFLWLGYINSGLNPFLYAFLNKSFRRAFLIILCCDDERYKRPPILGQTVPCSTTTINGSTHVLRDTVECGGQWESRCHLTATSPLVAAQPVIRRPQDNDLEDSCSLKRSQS

COc1cc(N)c(Cl)cc1C(=O)NCC1C2CC3CC1CN3C2 (configuration not stated) [4-Amino-N-(3-aza-tricyclo[3.3.1.0*3,7*]non-9-ylmethyl)-5-chloro-2-methoxy-benzamide]
EC50: 660 nM

COc1cc(N)c(Cl)cc1C(=O)NC1C2CC3CC1CN3C2 (configuration not stated) [4-Amino-N-(3-aza-tricyclo[3.3.1.0*3,7*]non-9-yl)-5-chloro-2-methoxy-benzamide]
EC50: 382 nM

Reference: BindingDB's records for doi:10.1016/S0960-894X(97)00408-3 (1997)
